Values joined by “and” are separate entries in the source; they are usually repeats but may differ in a detail not shown here. Equal entries are not always repeated. Numbers after ± are expanded uncertainties.
Assays:
[1] = Molar enthalpy of transition or fusion; conditions: Crystal; DSC
[2] = Crystal; DTA

Molar enthalpy of transition or fusion [1]: 12.9 kcal/mol and 12.4 kcal/mol and 12.5 kcal/mol
SMILES: OC[C@@H](O)[C@@H](O)[C@H](O)[C@H](O)CO [D-mannitol]
Normal melting temperature [2]: 165.73 ± 2 °C and 166.68 ± 2 °C and 165.74 ± 2 °C
